From patent US6992079B2, “Substituted 11-phenyl-dibenzazepine compounds useful for the treatment or prevention of diseases characterized by abnormal cell proliferation” (President Fellows of Harvard College, priority 1997, dated 2006)
Where two headings read alike, the source gives them in different places. Marks after values point to notes of the source that are not given here.

What was measured:
[1] = tested on: ERVX
[2] = tested on: SW-620; experiment: In-Vitro Testing SRB panel: Colon Cancer; assay type: cell-based; conditions: SW-620
[3] = tested on: H209 small lung cell carcinoma; experiment: Mouse xenograft tumor growth; assay type: in vivo, SCID mice
[4] = tested on: MALM-3M; experiment: In-Vitro Testing SRB panel: Melanoma; assay type: cell-based; conditions: MALM-3M
[5] = tested on: HS 578T; experiment: In-Vitro Testing SRB panel: Breast Cancer; assay type: cell-based
[6] = tested on: UACC-257; experiment: In-Vitro Testing SRB panel: Melanoma; assay type: cell-based; conditions: UACC-257
[7] = tested on: SF-295; experiment: In-Vitro Testing SRB panel: CNS Cancer; assay type: cell-based; conditions: SF-295
[8] = tested on: NCI-H522; assay type: cell-based; conditions: NCI-H522
[9] = tested on: MDA-N; experiment: In-Vitro Testing SRB panel: Breast Cancer; assay type: cell-based
[10] = tested on: NCI/ADR-RES; experiment: In-Vitro Testing SRB panel: Breast Cancer; assay type: cell-based
[11] = tested on: RXF 393; experiment: In-Vitro Testing SRB panel: Renal Cancer; assay type: cell-based; conditions: RXF 393
[12] = tested on: TK-10; experiment: In-Vitro Testing SRB panel: Renal Cancer; assay type: cell-based; conditions: TK-10
[13] = tested on: H460 large cell lung carcinoma; experiment: Mouse xenograft tumor growth; assay type: in vivo, CD-1 nude mice
[14] = tested on: SNB-19; experiment: In-Vitro Testing SRB panel: CNS Cancer; assay type: cell-based; conditions: SNB-19
[15] = tested on: NCI-H226; assay type: cell-based; conditions: NCI-H226
[16] = tested on: SU.86.86 pancreatic adenocarcinoma; experiment: Mouse xenograft tumor growth; assay type: in vivo, nude mice; conditions: SU.86.86 pancreatic adenocarcinoma mouse xenograft
[17] = Preliminary toxicology, subcutaneous injection for 14 days; assay type: in vivo, CD-1 female mice; conditions: CD-1 female mice; 80 mg/kg/day s.c. 14 days
Method: The toxicological effects of CLT, and compounds 28, 30 and 31 were tested in CD-1 female mice. A dose of 80 mg/kg/day was given to each mouse via subcutaneous injection for a period of 14 days. Preliminary toxicological data was determined by measuring body weight, gross pathology of organs blood chemistry and histology. The vehicle used was DMF 12%+2% Tween 20 88%.

[18] = tested on: RPMI-8226; experiment: In-Vitro Testing SRB panel: Leukemia; assay type: cell-based; conditions: RPMI-8226
[19] = Homo sapiens, read-out: LC50 (the source's name)

COc1cccc2c1C(c1ccccc1Cl)c1cc(Cl)ccc1N(C(=O)c1ccc([N+](=O)[O-])cc1)C2 (centres unmarked) [Compound 31]
TGI ([1]; ERVX): >1.00E−04 Molar
Percent Growth ([1]; ERVX, log10 conc -4 Molar): 7%
Percent Growth ([1]; ERVX, log10 conc -5 Molar): 27%
Percent Growth ([1]; ERVX, log10 conc -6 Molar): 80%
Percent Growth ([1]; ERVX, log10 conc -7 Molar): 103%
Percent Growth ([1]; ERVX, log10 conc -8 Molar): 100%
GI50 ([1]; Homo sapiens): 3.65 µM
CC50 ([1]; Homo sapiens, read-out: LC50): > 100 µM
GI50 ([2]; Homo sapiens): 2 µM
CC50 [2, 19]: > 100 µM
TGI [2]: >1.00E−04 Molar
Percent Growth ([2]; log10 conc -4 Molar): 27%
Percent Growth ([2]; log10 conc -5 Molar): 34%
Percent Growth ([2]; log10 conc -6 Molar): 57%
Percent Growth ([2]; log10 conc -7 Molar): 94%
Percent Growth ([2]; log10 conc -8 Molar): 105%
tumor growth [3]: showed inhibition of tumor growth
CC50 [4, 19]: > 100 µM
TGI [4]: >1.00E−04 Molar
Percent Growth ([4]; log10 conc -4 Molar): 97%
Percent Growth ([4]; log10 conc -5 Molar): 96%
Percent Growth ([4]; log10 conc -6 Molar): 42%
Percent Growth ([4]; log10 conc -7 Molar): 123%
Percent Growth ([4]; log10 conc -8 Molar): 117%
TGI ([5]; HS 578T): >1.00E−04 Molar
Percent Growth ([5]; HS 578T, log10 conc -4 Molar): 17%
Percent Growth ([5]; HS 578T, log10 conc -5 Molar): 31%
Percent Growth ([5]; HS 578T, log10 conc -6 Molar): 49%
Percent Growth ([5]; HS 578T, log10 conc -7 Molar): 74%
Percent Growth ([5]; HS 578T, log10 conc -8 Molar): 90%
GI50 ([5]; Homo sapiens, Hs-578T): 0.913 µM
CC50 ([5]; Homo sapiens, HS 578T, read-out: LC50 (the source's name)): > 100 µM
GI50 ([6]; Homo sapiens): 0.94 µM
CC50 [6, 19]: > 100 µM
TGI [6]: >1.00E−04 Molar
Percent Growth ([6]; log10 conc -4 Molar): 7%
Percent Growth ([6]; log10 conc -5 Molar): 27%
Percent Growth ([6]; log10 conc -6 Molar): 49%
Percent Growth ([6]; log10 conc -7 Molar): 91%
Percent Growth ([6]; log10 conc -8 Molar): 98%
GI50 ([7]; Homo sapiens): 13.5 µM
CC50 [7, 19]: > 100 µM
TGI [7]: >1.00E−04 Molar
Percent Growth ([7]; log10 conc -4 Molar): 34%
Percent Growth ([7]; log10 conc -5 Molar): 52%
Percent Growth ([7]; log10 conc -6 Molar): 75%
Percent Growth ([7]; log10 conc -7 Molar): 98%
Percent Growth ([7]; log10 conc -8 Molar): 97%
GI50 ([8]; Homo sapiens): 7.48 µM
CC50 [8, 19]: > 100 µM
TGI [8]: >1.00E−04 Molar
Percent Growth ([8]; log10 conc -4 Molar): 36%
Percent Growth ([8]; log10 conc -5 Molar): 44%
Percent Growth ([8]; log10 conc -6 Molar): 89%
Percent Growth ([8]; log10 conc -7 Molar): 88%
Percent Growth ([8]; log10 conc -8 Molar): 99%
TGI [9]: >1.00E−04 Molar
GI50 ([9]; Homo sapiens): 1.97 µM
CC50 [9, 19]: > 100 µM
Percent Growth ([9]; log10 conc -4 Molar): 22%
Percent Growth ([9]; log10 conc -5 Molar): 33%
Percent Growth ([9]; log10 conc -6 Molar): 57%
Percent Growth ([9]; log10 conc -7 Molar): 90%
Percent Growth ([9]; log10 conc -8 Molar): 96%
TGI [10]: >1.00E−04 Molar
GI50 ([10]; Homo sapiens): 3.88 µM
CC50 [10, 19]: > 100 µM
Percent Growth ([10]; log10 conc -4 Molar): 12%
Percent Growth ([10]; log10 conc -5 Molar): 27%
Percent Growth ([10]; log10 conc -6 Molar): 84%
Percent Growth ([10]; log10 conc -7 Molar): 101%
Percent Growth ([10]; log10 conc -8 Molar): 95%
GI50 ([11]; Homo sapiens): 13.1 µM
CC50 [11, 19]: > 100 µM
TGI [11]: >1.00E−04 Molar
Percent Growth ([11]; log10 conc -4 Molar): 39%
Percent Growth ([11]; log10 conc -5 Molar): 52%
Percent Growth ([11]; log10 conc -6 Molar): 81%
Percent Growth ([11]; log10 conc -7 Molar): 96%
Percent Growth ([11]; log10 conc -8 Molar): 96%
GI50 ([12]; Homo sapiens): 16.9 µM
CC50 [12, 19]: > 100 µM
TGI [12]: >1.00E−04 Molar
Percent Growth ([12]; log10 conc -4 Molar): 34%
Percent Growth ([12]; log10 conc -5 Molar): 55%
Percent Growth ([12]; log10 conc -6 Molar): 85%
Percent Growth ([12]; log10 conc -7 Molar): 105%
Percent Growth ([12]; log10 conc -8 Molar): 102%
tumor growth [13]: showed inhibition of tumor growth
GI50 ([14]; Homo sapiens): 2.61 µM
CC50 [14, 19]: > 100 µM
TGI [14]: 5.66E−05 Molar
Percent Growth ([14]; log10 conc -4 Molar): −5%
Percent Growth ([14]; log10 conc -5 Molar): 16%
Percent Growth ([14]; log10 conc -6 Molar): 74%
Percent Growth ([14]; log10 conc -7 Molar): 99%
Percent Growth ([14]; log10 conc -8 Molar): 102%
GI50 ([15]; Homo sapiens): 3.67 µM
CC50 [15, 19]: > 100 µM
TGI [15]: >1.00E−04 Molar
Percent Growth ([15]; log10 conc -4 Molar): 13%
Percent Growth ([15]; log10 conc -5 Molar): 34%
Percent Growth ([15]; log10 conc -6 Molar): 71%
Percent Growth ([15]; log10 conc -7 Molar): 90%
Percent Growth ([15]; log10 conc -8 Molar): 90%
tumor growth [16]: showed inhibition of tumor growth
Body Weight Change [17]: 113%
Liver Weight [17]: 1.49 ± 0.04^c g
RBC [17]: 8.6 ± 1.6 10^6/mm^3
WBC [17]: 7.2 ± 1.7 10^3/mm^3
WBC, RBC, BUN and creatine levels [17]: no differences were found
GI50 ([18]; Homo sapiens): 0.327 µM
CC50 [18, 19]: > 100 µM
TGI [18]: >1.00E−04 Molar
Percent Growth ([18]; log10 conc -4 Molar): 21%
Percent Growth ([18]; log10 conc -5 Molar): 23%
Percent Growth ([18]; log10 conc -6 Molar): 36%
Percent Growth ([18]; log10 conc -7 Molar): 65%
Percent Growth ([18]; log10 conc -8 Molar): 82%
